Assay results: US6093732A, “4-hydroxyquinoline-3-carboxamides and hydrazides as antiviral agents” (Pharmacia & Upjohn Company, priority 1998, dated 2000)

Experiments:
Format in all cases: biochemical
[1] = biological target: T1, HCMV polymerase (Human cytomegalovirus, UniProt P08546); test: HCMV polymerase scintillation proximity assay (SPA), modified version; conditions: CMV polymerase; Table 1; modified assay with 4.5 mM DTT, compounds in 100% DMSO; read-out: Antiviral Selective Polymerase IC50 Values, CMV
T1 construct: made in house; host or cells: recombinant baculovirus-infected SF-9 cells
T1 sequence (P08546 whole entry): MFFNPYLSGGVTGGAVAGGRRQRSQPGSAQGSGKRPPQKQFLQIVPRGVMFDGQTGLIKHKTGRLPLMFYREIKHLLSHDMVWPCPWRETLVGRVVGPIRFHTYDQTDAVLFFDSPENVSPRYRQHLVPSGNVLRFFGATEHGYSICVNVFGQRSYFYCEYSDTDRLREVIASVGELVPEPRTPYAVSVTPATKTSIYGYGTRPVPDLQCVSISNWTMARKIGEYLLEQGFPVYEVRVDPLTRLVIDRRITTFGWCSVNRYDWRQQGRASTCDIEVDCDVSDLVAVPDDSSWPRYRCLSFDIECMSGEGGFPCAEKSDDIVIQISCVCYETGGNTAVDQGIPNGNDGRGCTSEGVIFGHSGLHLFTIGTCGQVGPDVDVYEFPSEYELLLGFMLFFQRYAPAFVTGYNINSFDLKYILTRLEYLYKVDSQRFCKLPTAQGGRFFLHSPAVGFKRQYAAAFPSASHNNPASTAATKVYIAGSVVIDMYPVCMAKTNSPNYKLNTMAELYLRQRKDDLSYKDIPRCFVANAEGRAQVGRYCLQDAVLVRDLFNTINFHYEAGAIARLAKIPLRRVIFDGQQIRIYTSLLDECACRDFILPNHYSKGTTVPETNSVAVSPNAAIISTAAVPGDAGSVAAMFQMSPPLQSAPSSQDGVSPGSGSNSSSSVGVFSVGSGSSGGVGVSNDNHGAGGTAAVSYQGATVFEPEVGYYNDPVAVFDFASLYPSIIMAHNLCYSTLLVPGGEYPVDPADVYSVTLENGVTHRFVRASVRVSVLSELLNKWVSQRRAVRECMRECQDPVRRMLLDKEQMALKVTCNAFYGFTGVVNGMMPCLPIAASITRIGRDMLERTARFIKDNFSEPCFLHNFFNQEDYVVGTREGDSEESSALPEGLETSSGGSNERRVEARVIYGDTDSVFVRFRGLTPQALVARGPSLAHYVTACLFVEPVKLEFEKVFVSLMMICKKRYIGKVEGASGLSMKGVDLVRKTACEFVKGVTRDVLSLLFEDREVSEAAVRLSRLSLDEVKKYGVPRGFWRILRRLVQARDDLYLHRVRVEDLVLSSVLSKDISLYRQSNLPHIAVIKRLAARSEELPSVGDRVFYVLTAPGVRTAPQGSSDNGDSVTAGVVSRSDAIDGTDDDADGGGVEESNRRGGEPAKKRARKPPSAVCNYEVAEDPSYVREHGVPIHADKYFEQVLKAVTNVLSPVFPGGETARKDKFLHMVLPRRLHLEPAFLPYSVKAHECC
How it was run: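 SPA measuring 3H-dTTP (90 nM) incorporation on 6 nM biotinylated poly(dA)-oligo(dT) by SF-9-expressed enzyme, pH 7.5 HEPES/KCl/MgCl2/BSA buffer with or without 2 mM CHAPS. Run at 25° C or 37° C, stopped with EDTA while linear (HCMV 30 min); IC50 from linear regression. Modified format adds 4.5 mM DTT, compounds diluted in 100% DMSO.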

[2] = biological target: HSV polymerase (Human herpesvirus 1, UniProt P04293); test: HSV polymerase assay (procedure similar to the HCMV polymerase SPA); conditions: Table 1, read-out: Antiviral Selective Polymerase IC50 Values, HSV
HSV polymerase, sequence (P04293 whole entry): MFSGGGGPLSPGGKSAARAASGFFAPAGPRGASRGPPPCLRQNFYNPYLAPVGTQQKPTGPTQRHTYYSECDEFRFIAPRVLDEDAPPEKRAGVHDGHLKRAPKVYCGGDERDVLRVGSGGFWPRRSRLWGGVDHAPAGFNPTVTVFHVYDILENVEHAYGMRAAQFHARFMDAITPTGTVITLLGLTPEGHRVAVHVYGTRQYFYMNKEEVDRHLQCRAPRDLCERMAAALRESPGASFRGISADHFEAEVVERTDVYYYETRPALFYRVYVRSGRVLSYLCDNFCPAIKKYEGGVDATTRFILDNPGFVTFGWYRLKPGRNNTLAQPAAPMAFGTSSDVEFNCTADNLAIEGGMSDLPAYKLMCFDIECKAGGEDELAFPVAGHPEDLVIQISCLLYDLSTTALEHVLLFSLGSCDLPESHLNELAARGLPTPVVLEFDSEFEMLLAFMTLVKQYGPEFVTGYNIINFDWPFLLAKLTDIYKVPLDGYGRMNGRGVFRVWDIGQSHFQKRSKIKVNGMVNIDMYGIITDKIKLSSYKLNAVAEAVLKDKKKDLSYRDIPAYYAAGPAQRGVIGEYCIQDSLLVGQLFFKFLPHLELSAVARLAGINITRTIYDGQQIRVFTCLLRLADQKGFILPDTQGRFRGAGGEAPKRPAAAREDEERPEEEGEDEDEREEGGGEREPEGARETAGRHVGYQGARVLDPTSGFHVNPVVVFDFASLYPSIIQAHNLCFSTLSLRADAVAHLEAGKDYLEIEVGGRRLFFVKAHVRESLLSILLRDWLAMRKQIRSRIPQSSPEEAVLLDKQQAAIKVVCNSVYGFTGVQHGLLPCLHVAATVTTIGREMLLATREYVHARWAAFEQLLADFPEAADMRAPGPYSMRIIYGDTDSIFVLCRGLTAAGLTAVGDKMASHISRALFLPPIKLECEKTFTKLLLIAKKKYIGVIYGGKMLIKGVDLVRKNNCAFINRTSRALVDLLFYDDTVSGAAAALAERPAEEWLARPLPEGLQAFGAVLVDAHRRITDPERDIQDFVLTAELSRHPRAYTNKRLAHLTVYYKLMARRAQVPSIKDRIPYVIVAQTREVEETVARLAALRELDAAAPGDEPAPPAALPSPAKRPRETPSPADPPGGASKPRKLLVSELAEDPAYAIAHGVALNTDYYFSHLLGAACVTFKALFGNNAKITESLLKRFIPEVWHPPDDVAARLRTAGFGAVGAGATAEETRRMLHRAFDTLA
Protocol: (§1) The HCMV polymerase assay is performed using a scintillation proximity assay (SPA) as described in several references, such as N. D. Cook, et al., Pharmaceutical Manufacturing International, pages 49-53 (1992); K. Takeuchi, Laboratory Practice, September issue (1992); U.S. Pat. No. 4,568,649 (1986); which are incorporated by reference herein. Reactions are performed in 96-well plates. The assay is conducted in 100 μl volume with 5.4 mM HEPES (pH 7.5), 11.7 mM KCl, 4.5 mM MgCl2, 0.36 mg/ml BSA, and 90 nM ^3 H-dTTP. Assays are run with and without CHAPS, (3-[(3-Cholamidopropyl)-dimethylammonio]-1-propane-sulfonate) at a final concentration of 2 mM. HCMV polymerase is diluted in enzyme dilution buffer containing 50% glycerol, 250 mM NaCl, 10 mM HEPES (pH 7.5), 100 μg/ml BSA, and 0.01% sodium azide. The HCMV polymerase, which is expressed in recombinant baculovirus-infected SF-9 cells and purified according to literature procedures, is added at 10% (or 10 μl) of the final reaction volume, i.e., 100 μl. Compounds are diluted in 50% DMSO and 10 μl are added to each well. Control wells contain an equivalent concentration of DMSO. Unless noted otherwise, reactions are initiated via the addition of 6 nM biotinylated poly(dA)-oligo(dT) template/primer to reaction mixtures containing the enzyme, substrate, and compounds of interest. Plates are incubated in a 25° C. or 37° C. H2 O bath and terminated via the addition of 40 μl/reaction of 0.5 M EDTA (pH 8) per well. Reactions are terminated within the time-frame during which substrate incorporation is linear and varied depending upon the enzyme and conditions used, i.e., 30 min. for HCMV polymerase. Ten μl of streptavidin-SPA beads (20 mg/ml in PBS/10% glycerol) are added following termination of the reaction. Plates are incubated 10 min. at 37° C., then equilibrated to room temperature, and counted on a Packard Topcount. Linear regressions are performed and IC50 's are calculated using computer software.
(§2) A modified version of the above HCMV polymerase assay is performed as described above, but with the following changes: Compounds are diluted in 100% DMSO until final dilution into assay buffer. In the previous assay, compounds are diluted in 50% DMSO. 4.5 mM dithiotherotol (DTT) is added to the polymerase buffer. […] Other viral polymerase assays are performed using procedures similar to those described above.

[3] = biological target: VZV polymerase (Varicella-zoster virus, UniProt P09252); test: VZV polymerase assay (procedure similar to the HCMV polymerase SPA); conditions: Table 1, read-out: Antiviral Selective Polymerase IC50 Values, VZV
VZV polymerase, sequence (P09252 whole entry): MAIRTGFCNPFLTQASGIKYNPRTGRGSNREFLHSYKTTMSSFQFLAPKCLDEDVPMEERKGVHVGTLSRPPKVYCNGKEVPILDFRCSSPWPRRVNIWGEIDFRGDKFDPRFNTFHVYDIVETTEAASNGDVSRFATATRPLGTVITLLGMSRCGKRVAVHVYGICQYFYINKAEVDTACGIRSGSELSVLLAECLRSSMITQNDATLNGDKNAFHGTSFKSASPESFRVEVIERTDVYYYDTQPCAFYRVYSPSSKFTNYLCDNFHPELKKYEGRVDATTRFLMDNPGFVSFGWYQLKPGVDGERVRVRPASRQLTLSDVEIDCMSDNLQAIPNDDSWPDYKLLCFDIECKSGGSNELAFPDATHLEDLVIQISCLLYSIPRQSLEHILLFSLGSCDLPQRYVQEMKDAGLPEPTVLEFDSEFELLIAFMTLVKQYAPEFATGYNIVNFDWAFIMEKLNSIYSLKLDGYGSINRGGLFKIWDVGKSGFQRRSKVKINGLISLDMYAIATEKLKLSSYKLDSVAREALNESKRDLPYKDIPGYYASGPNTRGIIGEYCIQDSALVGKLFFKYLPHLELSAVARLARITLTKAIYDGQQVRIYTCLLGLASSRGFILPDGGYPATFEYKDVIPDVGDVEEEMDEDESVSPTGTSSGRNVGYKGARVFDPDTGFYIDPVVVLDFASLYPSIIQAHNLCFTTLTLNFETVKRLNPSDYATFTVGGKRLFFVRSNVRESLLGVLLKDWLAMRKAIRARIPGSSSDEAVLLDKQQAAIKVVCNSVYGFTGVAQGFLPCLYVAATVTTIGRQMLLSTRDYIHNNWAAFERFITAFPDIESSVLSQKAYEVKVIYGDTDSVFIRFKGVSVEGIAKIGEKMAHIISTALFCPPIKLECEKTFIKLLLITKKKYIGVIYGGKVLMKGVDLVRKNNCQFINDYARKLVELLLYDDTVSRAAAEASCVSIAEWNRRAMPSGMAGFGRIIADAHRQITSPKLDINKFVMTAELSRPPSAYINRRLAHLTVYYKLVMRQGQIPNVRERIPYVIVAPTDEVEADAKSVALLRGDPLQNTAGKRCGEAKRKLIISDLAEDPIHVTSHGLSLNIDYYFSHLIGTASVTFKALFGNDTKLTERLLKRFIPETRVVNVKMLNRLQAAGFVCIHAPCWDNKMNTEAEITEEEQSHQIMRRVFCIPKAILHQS
Protocol: as §1, §2

Row | IC50 [1] [µM] | IC50 [2] [µM] | IC50 [3] [µM] | SMILES
1 | 0.9 | 0.72 | 0.19 | O=C(NCc1ccc(Cl)cc1)c1cnc2ccc(C#CCO)cc2c1O [Example 134, N-(4-Chlorobenzyl)-4-hydroxy-6-(3-hydroxy-1-propynyl)-3-quinolinecarboxamide]
2 | 0.68 | 0.7 | 0.39 | O=C(NCc1ccc(Cl)cc1)c1c[nH]c2ccc(/C=C/CO)cc2c1=O [Example 136, N-[(4-Chlorophenyl)methyl]-1,4-dihydro-6-[(1E)-3-hydroxy-1-propenyl]-4-oxo-3-quinolinecarboxamide]
3 | 4.7 | 3.5 | 2 | N#CCCc1cc(F)c2ncc(C(=O)NCc3ccc(Cl)cc3)c(O)c2c1 [Example 138, N-(4-Chlorobenzyl)-6-(2-cyanoethyl)-8-fluoro-4-hydroxy-3-quinolinecarboxamide]
4 | 1.4 | 1.7 | 1 | O=C(NCc1ccc(Cl)cc1)c1cnc2cc(CCCCO)ccc2c1O [Example 140, N-(4-Chlorobenzyl)-4-hydroxy-7-(4-hydroxybutyl)-3-quinolinecarboxamide]
5 | 3.8 | 2.9 | 2.1 | CS(=O)(=O)OCCCc1cc(F)c2ncc(C(=O)NCc3ccc(Cl)cc3)c(O)c2c1 [Example 142, 3-(3-([(4-Chlorobenzyl)amino]carbonyl}-8-fluoro-4-hydroxy-6-quinolinyl)propyl methanesulfonate]
6 | 0.28 | 0.28 | 0.07 | O=C(NCc1ccc(Cl)cc1)c1cnc2ccc(CCCO)cc2c1O [Example 144, N-(4-Chlorobenzyl)-4-hydroxy-6-(3-hydroxypropyl)-3-quinolinecarboxamide]
7 | 2.9 | 3.5 | 2.5 | O=C(CBr)OCCCc1cc(F)c2ncc(C(=O)NCc3ccc(Cl)cc3)c(O)c2c1 [Example 145, 3-(3-{[(4-Chlorobenzyl)amino]carbonyl}-8-fluoro-4-hydroxy-6-quinolinyl)propyl 2-bromoacetate]
8 | 2.4 | 1.4 | 1 | CN(C)CC(=O)OCCCc1cc(F)c2ncc(C(=O)NCc3ccc(Cl)cc3)c(O)c2c1 [Example 148, 3-(3-{[(4-Chlorobenzyl)amino]carbonyl}-8-fluoro-4-hydroxy-6-quinolinyl)propyl 2-(dimethylamino)acetate]
9 | 0.92 | 1.8 | 0.89 | CC(O)CCc1ccc2ncc(C(=O)NCc3ccc(Cl)cc3)c(O)c2c1 (stereo not drawn) [Example 157, N-(4-Chlorobenzyl)-4-hydroxy-6-(3-hydroxybutyl)-3-quinolinecarboxamide]
10 | 10 | 8.4 | 4.1 | O=C(NCc1ccc(Cl)cc1)c1cnc2c(F)cc(F)c(F)c2c1O [Example 168, N-[(4-Chlorophenyl)methyl]-5,6,8-trifluoro-4-hydroxy-3-quinolinecarboxamide]
11 | 0.15 | 0.8 | 0.64 | O=C(NCc1ccc(Cl)cc1)c1cnc2ccc(-c3cccs3)cc2c1O [Example 178, N-(4-Chlorobenzyl)-4-hydroxy-6-(2-thienyl)-3-quinolinecarboxamide]
12 | 1.8 | 1.4 | 0.66 | O=C(NCc1ccc(Cl)cc1)c1cnc2ccc(OCCO)cc2c1O [Example 179, N-(4-Chlorobenzyl)-4-hydroxy-6-(2-hydroxyethoxy)-3-quinolinecarboxamide]
13 | 0.5 | 0.63 | 0.64 | O=C(NCc1ccc(Cl)cc1)c1cnc2ccc(CN3CCOCC3)cc2c1O [Example 191, N-(4-Chlorobenzyl)-4-hydroxy-6-(4-morpholinylmethyl)-3-quinolinecarboxamide]
